For assay [1], the target named is T1, notexine (PLA₂ du venin de Notechis scutatus scutatus), notexine seule (Notechis scutatus scutatus, UniProt P00608).
T1 sequence (P00608 1-119): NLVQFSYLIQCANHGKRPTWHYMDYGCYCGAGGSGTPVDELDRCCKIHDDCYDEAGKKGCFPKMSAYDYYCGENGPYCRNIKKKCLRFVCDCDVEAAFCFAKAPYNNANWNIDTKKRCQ
As to the kind of experiment: Enzymatic activity of notexin by pH-stat titration of released fatty acids, Lineweaver-Burk analysis. In kind it is biochemical. Conditions: substrate: phosphatidylcholine emulsion 7,5-82,5 mM with sodium deoxycholate (ratio 3,7), CaCl₂ 20 mM, NaCl 0,12 M, pH 8, 40°C; notexin 0,5 µg/4 ml; read graphically; also printed as 0,034 M. The protocol: (§1) La mesure de l'activité enzymatique est réalisée à l'aide d'un appareil pH stat (Methrom). Les acides gras libérés sont titrés à pH constant (pH = 8), par une solution d'hydroxyde de Na 0,01 N à 40°C.
(§2) Le substrat est une émulsion de phosphatidylcholine (Halpert - Eaker, 1975), dans une solution de CaCl₂ 20 mM, NaCl 0,12 M, en présence de désoxycholate de sodium.
(§3) Le rapport concentration finale de phosphatidylcholine/concentration finale de désoxycholate de sodium est maintenu constant, égal à 3,7.
(§4) Les solutions initiales sont : phosphatidylcholine : 600 mM dans l'éthanol, désoxycholate de sodium : 270 mM dans H₂O. Le volume réactionnel final est de 4 ml.
(§5) Les volumes de soude ajoutés pour maintenir le pH constant sont enregistrés automatiquement en fonction du temps.
L'analyse cinétique de la réaction enzymatique a été faite par deux méthodes : mesure de Vi et mesure de Vmax.
Pour l'étude de Vi = f( [S] ) et 1/Vi = f(1/ [S]), à concentration de notexine constante ( [Et] = 0,5 µg/4 ml), la concentration de substrat varie de 7,5 mM à 82,5 mM. La mesure est réalisée en absence et en présence d'anticorps monoclonaux polyspécifiques MN₁, en excès molaire de 10 par rapport à la notexine. […]

For assay [2], the target named is T2, notexine (PLA₂ du venin de Notechis scutatus scutatus) en présence d'anticorps MN₁ (Notechis scutatus scutatus, UniProt P00608).
T2 sequence (P00608 1-119): T1 sequence (P00608 1-119)
As to the kind of experiment: Enzymatic activity of notexin pre-incubated with monoclonal antibody MN₁, by pH-stat titration and Lineweaver-Burk analysis. Conditions: same substrate and conditions; MN₁ in 10-fold molar excess over notexin, pre-incubated 1 h at room temperature; read graphically; also printed as 0,034 M. Type of assay: biochemical. How it is done: as §1, §2, §3, §4, §5
Les anticorps monoclonaux sont dialysés pendant 24 heures dans la solution de CaCl₂ utilisée pour effectuer les mesures, afin d'éviter une modification du pH du milieu réactionnel, lors de l'addition des anticorps. Ils sont incubés avec la notexine pendant une heure à température ambinate.
L'activité enzymatique de la notexine ainsi traitée, est alors mesurée.
L'analyse cinétique de la réaction enzymatique a été faite par deux méthodes : mesure de Vi et mesure de Vmax. […]

Usually Km stands for the concentration of substrate that gives half-maximal velocity. Consider phosphatidylcholine, for which the Km in assay [1] and in assay [2] was 34 mM throughout.

For the origin of these results see EP0320366A1, “Monoclonal antibodies against phospholipase A2 from the venom of snakes of the families Elapides and Hidrophides, methods for their preparation and their use in detecting poisoning caused by these snake families” (COMMISSARIAT A L'ENERGIE ATOMIQUE, priority 1987, dated 1989).
